Measured values as given in US10259810B2, “N-sulfonylated pyrazolo[3,4-b]pyridin-6-carboxamides and method of use” (AbbVie S.à.r.l., priority 2015, dated 2019).

Columns and labels:
[1] = target: T1, ΔF508-CFTR (Homo sapiens, UniProt P13569, DEL508-508); test: CFTR cell surface levels using HRP-tagged ΔF508-CFTR expressing CFBE cells, in the presence of a co-corrector; format: cell-based
T1 construct: host or cells: CFBE41o-, doxycycline-inducible
Method in brief: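 Chemiluminescent read-out of surface HRP (15 min, dark) after PBS washes. Activity is normalized as 100×(sample−DMSO)/(3 μM co-corrector alone−DMSO).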

[2] = target: T1, ΔF508-CFTR; test: CFTR cell surface levels using HRP-tagged ΔF508-CFTR expressing CFBE cells, intrinsic corrector capacity; format: cell-based; parameters: % Activation: concentration or dose not given beside the values
Method in brief: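 Surface ΔF508-CFTR was measured as HRP chemiluminescence from an extracellular-loop-4 tag, expressed as percent activity between DMSO and a […] corrector control.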

[3] = HRP-tagged ΔF508-CFTR CFBE cells, in the presence of 3 μM co-corrector
[4] = HRP-tagged ΔF508-CFTR CFBE cells, in the presence of 3 μM co-corrector, read-out: EC50
[5] = HRP-tagged ΔF508-CFTR expressing CFBE41o- cells, compound alone (intrinsic corrector capacity), 20 hours at 33° C.
[6] = HRP-tagged ΔF508-CFTR expressing CFBE41o- cells, compound alone (intrinsic corrector capacity), 20 hours at 33° C., read-out: EC50

T1 sequence (P13569 with tags, fused parts or gaps DEL508-508): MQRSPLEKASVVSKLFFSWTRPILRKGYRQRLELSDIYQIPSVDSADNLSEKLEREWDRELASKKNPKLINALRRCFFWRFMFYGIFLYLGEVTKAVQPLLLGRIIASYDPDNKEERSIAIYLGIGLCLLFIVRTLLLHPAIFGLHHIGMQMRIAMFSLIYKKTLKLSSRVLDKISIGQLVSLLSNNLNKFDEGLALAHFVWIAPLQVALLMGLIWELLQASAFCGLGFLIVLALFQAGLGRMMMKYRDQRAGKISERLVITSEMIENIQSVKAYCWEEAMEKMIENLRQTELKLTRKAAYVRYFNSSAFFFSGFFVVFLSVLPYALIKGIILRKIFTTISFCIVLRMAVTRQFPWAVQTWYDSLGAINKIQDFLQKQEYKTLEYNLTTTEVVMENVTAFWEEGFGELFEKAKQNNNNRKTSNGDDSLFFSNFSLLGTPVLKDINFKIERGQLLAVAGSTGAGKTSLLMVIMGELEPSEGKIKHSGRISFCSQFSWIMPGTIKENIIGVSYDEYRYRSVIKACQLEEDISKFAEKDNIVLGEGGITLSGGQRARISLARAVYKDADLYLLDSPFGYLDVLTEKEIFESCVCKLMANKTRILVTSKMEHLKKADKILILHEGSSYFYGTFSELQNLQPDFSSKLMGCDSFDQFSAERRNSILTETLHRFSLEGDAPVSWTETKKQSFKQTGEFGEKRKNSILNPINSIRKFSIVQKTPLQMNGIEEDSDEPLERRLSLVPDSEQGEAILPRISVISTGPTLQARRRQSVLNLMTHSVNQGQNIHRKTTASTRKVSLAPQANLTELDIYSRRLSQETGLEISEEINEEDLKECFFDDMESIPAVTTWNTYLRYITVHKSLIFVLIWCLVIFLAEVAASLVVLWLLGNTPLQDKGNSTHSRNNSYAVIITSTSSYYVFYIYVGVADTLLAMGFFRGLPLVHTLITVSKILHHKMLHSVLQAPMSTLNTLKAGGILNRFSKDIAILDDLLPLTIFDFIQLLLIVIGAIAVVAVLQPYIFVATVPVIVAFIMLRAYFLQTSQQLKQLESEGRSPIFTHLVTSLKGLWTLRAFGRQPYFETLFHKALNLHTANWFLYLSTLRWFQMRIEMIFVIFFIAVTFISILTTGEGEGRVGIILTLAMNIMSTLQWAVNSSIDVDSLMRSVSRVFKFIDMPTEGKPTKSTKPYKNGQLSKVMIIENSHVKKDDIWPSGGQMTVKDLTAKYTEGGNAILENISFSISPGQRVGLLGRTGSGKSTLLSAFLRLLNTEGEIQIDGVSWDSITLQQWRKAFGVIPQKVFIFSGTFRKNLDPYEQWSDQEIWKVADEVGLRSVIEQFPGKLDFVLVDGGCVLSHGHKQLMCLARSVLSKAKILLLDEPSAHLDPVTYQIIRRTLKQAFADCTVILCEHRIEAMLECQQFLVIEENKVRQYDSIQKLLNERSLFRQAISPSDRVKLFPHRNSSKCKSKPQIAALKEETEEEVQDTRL

Compound	% Activation [1, 3] [%]	EC50 [1, 4] [nM]	% Activation [2, 5] [%]	EC50 [2, 6] [nM]	EC50 [1] [nM]	EC50 [2] [nM]
O=C(NS(=O)(=O)N1CCC(F)CC1)c1cc(N2CCC(N3CCOCC3)CC2)c2c(C3CCC3)nn(-c3ccccc3)c2n1 [Compound 434, 3-cyclobutyl-N-(4-fluoropiperidine-1-sulfonyl)-4-[4-(morpholin-4-yl)piperidin-1-yl]-1-phenyl-1H-pyrazolo[3,4-b]pyridine-6-carboxamide]	470.37	59.5	245.2	57.7	–	–
COC1CCCN(c2cc(C(=O)NS(C)(=O)=O)nc3c2c(C(C)C)nn3-c2cccc(C)c2)C1 (stereo not shown) [Compound 162, N-(methanesulfonyl)-4-(3-methoxypiperidin-1-yl)-1-(3-methylphenyl)-3-(propan-2-yl)-1H-pyrazolo[3,4-b]pyridine-6-carboxamide]	331.53	304	169	445	–	–
COc1ccc(-c2cc(C(=O)NS(C)(=O)=O)nc3c2c(C)nn3-c2ccccc2)cc1 [Compound 14, N-(methanesulfonyl)-4-(4-methoxyphenyl)-3-methyl-1-phenyl-1H-pyrazolo[3,4-b]pyridine-6-carboxamide]	335.6	1370	148.9	1430	–	–
CN(C)S(=O)(=O)NC(=O)c1cc(N2CCC3(CC2)CC(N2CCOCC2)CO3)c2c(C3CCC3)nn(-c3ccc(F)cc3)c2n1 (stereo not shown) [Compound 533, 3-cyclobutyl-N-(dimethylsulfamoyl)-1-(4-fluorophenyl)-4-[3-(morpholin-4-yl)-1-oxa-8-azaspiro[4.5]decan-8-yl]-1H-pyrazolo[3,4-b]pyridine-6-carboxamide]	322.45	221	156.3	222	–	–
CCS(=O)(=O)NC(=O)c1cc(-c2ccc(N(C)C3CCOCC3)nc2)c2c(C(C)C)nn(-c3cccc(F)c3)c2n1 [Compound 224, N-(ethanesulfonyl)-1-(3-fluorophenyl)-4-{6-[methyl(oxan-4-yl)amino]pyridin-3-yl}-3-(propan-2-yl)-1H-pyrazolo[3,4-b]pyridine-6-carboxamide]	453.1	482	228.8	544	–	–
CS(=O)(=O)NC(=O)c1cc(N2CCS(=O)(=O)CC2)c2c(C3CCC3)nn(-c3ccccc3)c2n1 [Compound 371, 3-cyclobutyl-4-(1,1-dioxo-1λ^6,4-thiazinan-4-yl)-N-(methanesulfonyl)-1-phenyl-1H-pyrazolo[3,4-b]pyridine-6-carboxamide]	271.9	1930	121.3	2740	–	–
CC(C)c1nn(-c2cccc(N(C)C)c2)c2nc(C(=O)NS(C)(=O)=O)cc(-c3ccc(N4CCOCC4)nc3)c12 [Compound 53, 1-[3-(dimethylamino)phenyl]-N-(methanesulfonyl)-4-[6-(morpholin-4-yl)pyridin-3-yl]-3-(propan-2-yl)-1H-pyrazolo[3,4-b]pyridine-6-carboxamide]	572.78	647	376.8	671	–	–
CN(C)S(=O)(=O)NC(=O)c1cc(C2CCN(CCC(F)(F)F)CC2)c2c(C3CCC3)nn(-c3ccc(F)cc3)c2n1 [Compound 604, 3-cyclobutyl-N-(dimethylsulfamoyl)-1-(4-fluorophenyl)-4-[1-(3,3,3-trifluoropropyl)piperidin-4-yl]-1H-pyrazolo[3,4-b]pyridine-6-carboxamide]	268.3	300	86.51	490	–	–
CS(=O)(=O)NC(=O)c1cc(N2CCC(N3CCCC(C#N)C3)CC2)c2c(C3CCC3)nn(-c3ccc(F)cc3)c2n1 (stereo not shown) [Compound 566, 4-(3-cyano[1,4'-bipiperidin]-1'-yl)-3-cyclobutyl-1-(4-fluorophenyl)-N-(methanesulfonyl)-1H-pyrazolo[3,4-b]pyridine-6-carboxamide]	708.8	400	365.1	112	–	–
CS(=O)(=O)NC(=O)c1cc(N2CCC(OCC(=O)N3CCCC3)CC2)c2c(C3CCC3)nn(-c3ccccc3)c2n1 [Compound 154, 3-cyclobutyl-N-(methanesulfonyl)-4-{4-[2-oxo-2-(pyrrolidin-1-yl)ethoxy]piperidin-1-yl}-1-phenyl-1H-pyrazolo[3,4-b]pyridine-6-carboxamide]	447.85	203	275.65	533	–	–
CS(=O)(=O)NC(=O)c1cc(N2CCC(N3CCC(C(F)(F)F)C3)CC2)c2c(C3CCC3)nn(-c3ccc(F)cc3)c2n1 (stereo not shown) [Compound 564, 3-cyclobutyl-1-(4-fluorophenyl)-N-(methanesulfonyl)-4-{4-[3-(trifluoromethyl)pyrrolidin-1-yl]piperidin-1-yl}-1H-pyrazolo[3,4-b]pyridine-6-carboxamide]	587.4	40.8	361.35	118	–	–
Cc1cccc(-n2nc(C(C)C)c3c(N4CCC(S(C)(=O)=O)CC4)cc(C(=O)NS(C)(=O)=O)nc32)c1 [Compound 165, N-(methanesulfonyl)-4-[4-(methanesulfonyl)piperidin-1-yl]-1-(3-methylphenyl)-3-(propan-2-yl)-1H-pyrazolo[3,4-b]pyridine-6-carboxamide]	534.2	885	373.95	1780	–	–
Cc1nn(-c2cccc(OC(F)(F)F)c2)c2nc(C(=O)NS(C)(=O)=O)cc(-c3ccc(N4CCOCC4)cc3)c12 [Compound 6, N-(methanesulfonyl)-3-methyl-4-[4-(morpholin-4-yl)phenyl]-1-[3-(trifluoromethoxy)phenyl]-1H-pyrazolo[3,4-b]pyridine-6-carboxamide]	387.1	511	232.1	808	–	–
COCCN(C)c1ccc(-c2cc(C(=O)NS(C)(=O)=O)nc3c2c(C(C)C)nn3-c2cccc(N3CCOCC3)c2)cc1 [Compound 88, N-(methanesulfonyl)-4-{4-[(2-methoxyethyl)(methyl)amino]phenyl}-1-[3-(morpholin-4-yl)phenyl]-3-(propan-2-yl)-1H-pyrazolo[3,4-b]pyridine-6-carboxamide]	546.2	413	389.73	474	–	–
CN1CCN(C(=O)[C@@H]2CCCN2S(=O)(=O)NC(=O)c2cc(OCC3CCOCC3)c3c(C4CCC4)nn(-c4ccccc4)c3n2)CC1 [Compound 352, 3-cyclobutyl-N-[(2S)-2-(4-methylpiperazine-1-carbonyl)pyrrolidine-1-sulfonyl]-4-[(oxan-4-yl)methoxy]-1-phenyl-1H-pyrazolo[3,4-b]pyridine-6-carboxamide]	158.4	2780	27.44	5000	–	–
COCC1CCN(c2cc(C(=O)N3CCCCS3(=O)=O)nc3c2c(C2CCC2)nn3-c2ccccc2)CC1 [Compound 668, 2-{3-cyclobutyl-4-[4-(methoxymethyl)piperidin-1-yl]-1-phenyl-1H-pyrazolo[3,4-b]pyridine-6-carbonyl}-1λ^6,2-thiazinane-1,1-dione]	307.4	257	89.495	384	–	–
CC(C)c1nn(-c2cccc(OC(F)(F)F)c2)c2nc(C(=O)NS(C)(=O)=O)cc(-c3ccc(N4CCOCC4)cc3)c12 [Compound 126, N-(methanesulfonyl)-4-[4-(morpholin-4-yl)phenyl]-3-(propan-2-yl)-1-[3-(trifluoromethoxy)phenyl]-1H-pyrazolo[3,4-b]pyridine-6-carboxamide]	487.53	322	309.17	597	–	–
CC(C)Oc1nn(C2CCCCC2)c2nc(C(=O)NS(C)(=O)=O)cc(-c3ccc(C4(C#N)CCN(C)CC4)cc3)c12 [Compound 639, 4-[4-(4-cyano-1-methylpiperidin-4-yl)phenyl]-1-cyclohexyl-N-(methanesulfonyl)-3-[(propan-2-yl)oxy]-1H-pyrazolo[3,4-b]pyridine-6-carboxamide]	–	–	–	–	74.5	132
O=C(c1cc(N2CCC(N3CCOCC3)CC2)c2c(C3CCC3)nn(-c3ccccc3)c2n1)N1CCCCS1(=O)=O [Compound 666, 2-{3-cyclobutyl-4-[4-(morpholin-4-yl)piperidin-1-yl]-1-phenyl-1H-pyrazolo[3,4-b]pyridine-6-carbonyl}-1λ^6,2-thiazinane-1,1-dione]	266.6	122	99.775	256	–	–
CS(=O)(=O)NC(=O)c1cc(OCC2CCCCC2)c2c(C3CCC3)nn(-c3ccccc3)c2n1 [Compound 181, 3-cyclobutyl-4-(cyclohexylmethoxy)-N-(methanesulfonyl)-1-phenyl-1H-pyrazolo[3,4-b]pyridine-6-carboxamide]	357.93	435	137.73	398	–	–
CC1(COc2cc(C(=O)NS(C)(=O)=O)nc3c2c(C2CCC2)nn3-c2ccccc2)COC1 [Compound 254, 3-cyclobutyl-N-(methanesulfonyl)-4-[(3-methyloxetan-3-yl)methoxy]-1-phenyl-1H-pyrazolo[3,4-b]pyridine-6-carboxamide]	312.1	370	117.5	400	–	–
